This note sets out measurements from PubChem BioAssay (NCI).

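Protocol summary: plate cells (96-well), add compound at 5 concentrations, incubate 48 h, interpolate endpoints linearly. Abbreviation: GI50, concentration required for 50% inhibition of growth. The concentration for full growth arrest is given as TGI.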 Where only a bound is given, the exact number is not on record here.

Test systems include MDA-MB-231 breast; MALME-3M melanoma; T-47D breast; PC-3 prostate; SW-620 colon; M14 melanoma; HCT-15 colon; SK-MEL-5 melanoma; UACC-62 melanoma; TK-10 renal.
What all share (assay): DTP human tumour cell line panel, 48 h

For `COc1cnc2c(c1)C(=O)c1c-2n(CCCN2CCN(C)CC2)c(=O)c2cc(Cl)ccc12`, the GI50 in the assay with MDA-MB-231 breast was 10.7 µM; in the assay on MALME-3M melanoma, 5.77 µM; with T-47D breast, 22.8 µM; with PC-3 prostate, 3.6 µM; in the assay on SW-620 colon, 0.299 µM; in the assay on M14 melanoma it was 1.71 µM. Moreover, the GI50 was 4.08 µM with HCT-15 colon and 11 µM in the assay on SK-MEL-5 melanoma. The TGI in the assay on MDA-MB-231 breast came to 23.2 µM; in the assay with MALME-3M melanoma it was 19.5 µM; with T-47D breast, 98.7 µM; with PC-3 prostate, 65.7 µM; in the assay with SW-620 colon it was 12.8 µM; in the assay with M14 melanoma, 3.61 µM. The TGI in the assay on HCT-15 colon came out at 27.9 µM; with SK-MEL-5 melanoma it was 25.2 µM.
As to `CCCC(=O)NNc1[nH]c(-c2ccc(OC)cc2)cc1C(=O)OCC`, the GI50 in the assay with MDA-MB-231 breast was 16.6 µM; in the assay with MALME-3M melanoma, 14.5 µM; in the assay with T-47D breast, 15.3 µM; in the assay on PC-3 prostate it was 19.4 µM; with UACC-62 melanoma, 16.4 µM; in the assay on SW-620 colon, 3.54 µM. Moreover, the GI50 in the assay with M14 melanoma was 20.4 µM; in the assay on TK-10 renal, 15.9 µM; with HCT-15 colon, 9.47 µM; in the assay with SK-MEL-5 melanoma, 18.5 µM. Moreover, the total growth inhibition concentration (TGI) in the assay on MDA-MB-231 breast was 30.2 µM; with MALME-3M melanoma it was 29.2 µM; in the assay with T-47D breast, 48.6 µM; with PC-3 prostate, 41.4 µM; with UACC-62 melanoma it was 30 µM; with SW-620 colon, 12.6 µM. The TGI with M14 melanoma came out at 39.7 µM; with TK-10 renal, 30.1 µM; in the assay on HCT-15 colon it was 21.3 µM; with SK-MEL-5 melanoma, 33.2 µM.
Turning to `COc1cccc2c1c1nc3cc(C)c(C)cc3nc1n2CCN(C)C`, the GI50 is 1.87 µM with MDA-MB-231 breast; 1.14 µM with MALME-3M melanoma; 2.76 µM with T-47D breast; 1.73 µM in the assay on PC-3 prostate; 1.7 µM in the assay with UACC-62 melanoma; 0.805 µM in the assay on SW-620 colon. The GI50 was 1.24 µM in the assay on M14 melanoma, 2.95 µM in the assay on TK-10 renal, 1.64 µM in the assay on HCT-15 colon and 1.64 µM in the assay with SK-MEL-5 melanoma. The TGI in the assay with MDA-MB-231 breast was found to be 9.52 µM; in the assay on MALME-3M melanoma it was 2.62 µM; with T-47D breast it was 13.6 µM; in the assay on PC-3 prostate, 11.6 µM; with UACC-62 melanoma, 3.37 µM; in the assay with SW-620 colon, 11.3 µM. Also, the total growth inhibition concentration (TGI) was determined as 3.07 µM with M14 melanoma, 11.5 µM with TK-10 renal, 11.2 µM in the assay on HCT-15 colon and 3.01 µM with SK-MEL-5 melanoma.
For the molecule `COC1CC2CCC(C)[C@](O)(O2)C(=O)C(=O)N2CCCCC2C(=O)OC(C(C)CC2CCC(O)C(OC)C2)CC(=O)C(C)C=C(C)C(OC(=O)CN(C)C)C(OC)C(=O)C(C)CC(C)/C=C/C=C/C=C\1C` (stereo partly specified), the TGI with MDA-MB-231 breast is 20.4 µM; in the assay with MALME-3M melanoma it was 20.4 µM; with T-47D breast it was 25 µM; in the assay with PC-3 prostate, 21.2 µM; in the assay on UACC-62 melanoma, 20.2 µM; in the assay on SW-620 colon it was 21.9 µM. The concentration for total growth inhibition (TGI) in the assay with M14 melanoma amounted to 23 µM; in the assay on TK-10 renal, 23.8 µM; in the assay on HCT-15 colon, 22.6 µM; in the assay with SK-MEL-5 melanoma, 19.8 µM.
`COc1ccc(F)cc1C(=O)c1cnc(NC2CCN(S(C)(=O)=O)CC2)nc1N`: the GI50 in the assay on MDA-MB-231 breast is 2.49 µM; in the assay on MALME-3M melanoma, 3.57 µM; in the assay on T-47D breast, 4.49 µM; in the assay on PC-3 prostate it was 2.79 µM; in the assay on UACC-62 melanoma, 2.75 µM; in the assay on SW-620 colon, 0.636 µM. Also, the GI50 in the assay on M14 melanoma was 4.51 µM; with TK-10 renal, 1.83 µM; with HCT-15 colon, 2.86 µM; in the assay with SK-MEL-5 melanoma, 3.12 µM. Further, the TGI in the assay with MDA-MB-231 breast was above 25 µM; in the assay with MALME-3M melanoma, above 16.8 µM; with T-47D breast it was above 22.6 µM; in the assay on PC-3 prostate, 18.1 µM; in the assay on UACC-62 melanoma, 8.95 µM; in the assay with SW-620 colon, above 16.6 µM. The concentration for total growth inhibition (TGI) in the assay with M14 melanoma was above 25 µM; in the assay on TK-10 renal it was 14.7 µM; in the assay on HCT-15 colon it was above 20.5 µM; in the assay on SK-MEL-5 melanoma it was above 21.4 µM.
Consider `CO[C@H](C(=O)N[C@@H](CCCCNC(=O)OCc1ccccc1)C(=O)OC(C)(C)C)[C@@H]1Cc2cc3cc(OC4CC(OC5CC(O)C(O)C(C)O5)C(O)C(C)O4)c(C)c(O)c3c(O)c2C(=O)[C@H]1OC1CC(OC2CC(OC3CC(C)(O)C(O)C(C)O3)C(O)C(C)O2)C(O)C(C)O1` (stereo partly specified), for which the GI50 with MDA-MB-231 breast is 0.939 µM; with MALME-3M melanoma it was 0.516 µM; in the assay on T-47D breast, 0.958 µM; with PC-3 prostate it was 0.7 µM; in the assay on UACC-62 melanoma, 0.369 µM; with SW-620 colon it was 0.441 µM. Further, the GI50 with M14 melanoma is 0.879 µM; in the assay with TK-10 renal it was 1.15 µM; with HCT-15 colon it was 2.55 µM; in the assay on SK-MEL-5 melanoma, 0.432 µM. In addition, the total growth inhibition concentration (TGI) with MDA-MB-231 breast was 3.1 µM; with MALME-3M melanoma, 1.86 µM; with T-47D breast it was above 10 µM; in the assay with PC-3 prostate, 8.67 µM; with UACC-62 melanoma, 1.7 µM; with SW-620 colon, 3.34 µM. Also, the concentration for total growth inhibition (TGI) is 2.48 µM in the assay on M14 melanoma, above 10 µM in the assay with TK-10 renal, above 10 µM in the assay on HCT-15 colon and 1.59 µM with SK-MEL-5 melanoma.
On to `CO[C@H]1CC[C@@]2(C)C(=CC[C@H]3[C@@H]4C[C@H](O)C[C@@]4(C)CC[C@@H]32)C1`, for which the GI50 in the assay on MDA-MB-231 breast is 4.97 µM; in the assay on MALME-3M melanoma it was 5.22 µM; in the assay with T-47D breast, 8.33 µM; in the assay with PC-3 prostate it was 3.91 µM; in the assay on UACC-62 melanoma, 3.88 µM; in the assay on SW-620 colon, 3.38 µM. For the same molecule, the GI50 in the assay with M14 melanoma is 3.61 µM; in the assay with TK-10 renal it was 4.74 µM; in the assay on HCT-15 colon, 5.04 µM; with SK-MEL-5 melanoma it was 3.23 µM. The TGI with MDA-MB-231 breast came to 24.7 µM; with MALME-3M melanoma, 19.4 µM; in the assay with T-47D breast, 31.8 µM; in the assay on PC-3 prostate, 30.3 µM; with UACC-62 melanoma, 16.9 µM; with SW-620 colon it was 15 µM. For the same molecule, the TGI was found to be 16.2 µM with M14 melanoma, 17.9 µM in the assay with TK-10 renal, 23.2 µM with HCT-15 colon and 13.1 µM with SK-MEL-5 melanoma.
`COc1cc(C(=O)n2nc(N3CCN(C)CC3)c3cc(N)ccc32)cc(OC)c1OC`: the GI50 in the assay on MDA-MB-231 breast is 2.92 µM; with MALME-3M melanoma it was 5.12 µM; in the assay on T-47D breast, above 100 µM; in the assay on PC-3 prostate it was 17.7 µM; in the assay on UACC-62 melanoma, 2.78 µM; in the assay on SW-620 colon it was 5.28 µM. The GI50 in the assay on M14 melanoma was 3.74 µM; with TK-10 renal it was 15.6 µM; in the assay with HCT-15 colon it was 3.45 µM; in the assay with SK-MEL-5 melanoma, 3.03 µM. In addition, the TGI in the assay on MDA-MB-231 breast was 21.6 µM; in the assay with MALME-3M melanoma, 50.3 µM; in the assay with T-47D breast it was above 100 µM; with PC-3 prostate it was above 100 µM; in the assay with UACC-62 melanoma, 17.7 µM; in the assay with SW-620 colon, above 100 µM. The total growth inhibition concentration (TGI) was 16.7 µM in the assay on M14 melanoma, above 100 µM in the assay with TK-10 renal, above 100 µM in the assay on HCT-15 colon and 9.06 µM in the assay with SK-MEL-5 melanoma.

As usually defined, the GI50 is the concentration at which growth is held to half of that of the control. In general, TGI refers to the concentration giving total growth inhibition. Read a high TGI as lower sensitivity of the cells.
